Results: patent publication US12509734B2, “Systems and methods to assess microbiomes and treatments thereof” (priority 2013, dated 2025)

Key:
bacterial vaginosis (BV) [1] = assay: Clinical assessment of BV patients after therapy (Amsel criteria, Nugent score, recurrence); assay type: in vivo, human
Source text: Patients. Five African American participants were followed at the Vaginitis Clinic at Wayne State University and had been treated for recurrent episodes symptomatic bouts of BV. Patients were enrolled after protocol explanation and written informed consent was obtained. The study was endorsed by the Human Investigational Review Board of Wayne State University. At the time of enrollment, patients were diagnosed with florid symptomatic acute BV, characterized by the presence of at least 3 of the 4 Amsel criteria (homogeneous vaginal discharge, pH elevated above 4.5, clue cells>20%, positive whiff test) and Nugent scores of at least 8.
At this immediate PT visit, patients were given Catch-All Sample Collection Swabs (Epicentre Biotechnologies, Madison, WI) and 15 mL conical tubes for vaginal specimen self-collection. […] Samples from a previously characterized group of recurrent BV patients, sampled before and after treatment, were also evaluated by Lb-qPCR. Reichman et al., Sexually Transmitted Diseases 36: 732-734, 2009.

[2] = test system: vaginal microbiota (PB-primer target groups); assay: PB-qPCR microbial profiles of vaginal swabs of recurrent BV patients (Example 2); assay type: in vivo, human
Protocol: Sample processing, DNA extraction, and qPCR. Microbial gDNA was purified from swabs in 1-2 ml saline or lysis solution by a high SDS/alkaline lysis—phenol extraction protocol as described previously in Lambert and resuspended in 200 μL TE (10 mM Tris, pH 8, 1 mM EDTA). The lysed bacterial gDNA is stable for over one month at room temperature in lysis solution buffer (data not shown) and this buffer prevents changes in titer due to possible stability issues with different strains of bacteria in saline. An aliquot of purified DNA was assayed by qPCR with 18 universal and phylogenetic branch-inclusive (PB) primers and PCR conditions as described previously in Lambert. Additional primers, targeting the Enterococcus genus and its cytolysin gene CyILL, are provided in SEQ ID NOs: 92 and 95 (Enterococcus), and 93 and 96 (cytolysin gene). Each PB-primer targets a branch of the phylogenetic tree, from whole phyla to family or genus, and is far more inclusive than species-specific primers. Relative LB composition of the vaginal microbiome was determined by dividing the Lactobacillaceae titer by the sum of all PB-primers and by using the disclosed LB-blocker approach. Briefly, the LB-blocker approach uses the difference between the quantitative cycles (Cq) of two parallel qPCR reactions with universal primers targeting the 16S rRNA gene, when one of the reactions is in the presence of LB spp.-specific blocking oligomers (LB-blockers) that have been chemically modified to prevent extension and that partially overlap the universal primer binding site, effectively rendering the LB DNA “invisible” to the universal PCR, even when LB gDNA is present at great excess compared to non-LB gDNA, as is common in healthy and PT samples. PB-primers amplicons were selectively sequenced to confirm they were correctly targeted and to identify the dominant species. These were “cleaned” enzymatically as described in Lambert, and Sanger sequenced at Functional Biosciences (Madison, WI). Sequences were uploaded to Ribosomal Database Project II using its Pipeline function; species were identified based on phylogenetic trees constructed in Molecular Evolutionary Genetics Analysis (MEGA5) software.
Calculations. Cq values from qPCR reactions were converted to molecules per reaction by comparing sample Cq values to a standard curve from the same run of Cq values derived from dilutions of an amplicon of known target of known concentration. Molecules per reaction were converted to cells per swab, assuming an average of 5 ribosomal genes per cell and proportioned to the ratio of the volume of the sample used in the DNA prep and the amount of sample used in the qPCR reaction. Delta Cq (ΔCq) values of LB-blocked reaction pairs were calculated as Cq (blocked sample)−Cq (unblocked sample). Differences between patient groups were compared using the t test in (GraphPad software).

bacterial vaginosis (BV) [3] = details: 121 women with BV successfully treated; cited from earlier work
[4] = test system: relative LB content of the vaginal microbiome; assay: Lb-qPCR / LbRC: delta Cq of LB-blocked versus unblocked universal qPCR of vaginal samples; assay type: in vivo, human; details: separate group of recurrent BV patients, FIG. 11
Protocol: Sample processing, DNA extraction, and qPCR. Microbial gDNA was purified from swabs in 1-2 ml saline or lysis solution by a high SDS/alkaline lysis—phenol extraction protocol as described previously in Lambert and resuspended in 200 μL TE (10 mM Tris, pH 8, 1 mM EDTA). The lysed bacterial gDNA is stable for over one month at room temperature in lysis solution buffer (data not shown) and this buffer prevents changes in titer due to possible stability issues with different strains of bacteria in saline. An aliquot of purified DNA was assayed by qPCR with 18 universal and phylogenetic branch-inclusive (PB) primers and PCR conditions as described previously in Lambert. Additional primers, targeting the Enterococcus genus and its cytolysin gene CyILL, are provided in SEQ ID NOs: 92 and 95 (Enterococcus), and 93 and 96 (cytolysin gene). Each PB-primer targets a branch of the phylogenetic tree, from whole phyla to family or genus, and is far more inclusive than species-specific primers. Relative LB composition of the vaginal microbiome was determined by dividing the Lactobacillaceae titer by the sum of all PB-primers and by using the disclosed LB-blocker approach. […]
Calculations. […] Delta Cq (ΔCq) values of LB-blocked reaction pairs were calculated as Cq (blocked sample)−Cq (unblocked sample). […]

[5] = P2, 500 mg suppositories, 2 per day for 7 days
[6] = P5, 7 daily 500 mg vaginal suppositories
[7] = separate group of recurrent BV patients

CCC[C@@H]1C[C@@H](C(=O)N[C@@H]([C@H]2O[C@H](SC)[C@H](O)[C@@H](O)[C@H]2O)[C@H](C)Cl)N(C)C1 [clindamycin]
Nugent score after treatment (bacterial vaginosis (BV) [1]; P3, Nugent 10 before): 0
Actinobacteridae (G. vaginalis) after treatment, fold lower than P1 or P2 ([2]; P3-post): 10-100 fold
Mobiluncus share after treatment ([2]; P3-post): 0.4%
Share of all other targets after treatment ([2]; P3-post): below 0.01%

Cc1ncc([N+](=O)[O-])n1CCO [metronidazole]
Women who recurred within one year (bacterial vaginosis (BV) [3]): 58%
Women who returned to abnormal vaginal profiles (bacterial vaginosis (BV) [3]): 69%
delta Cq score after treatment, Post A group [4]: 4.1±2.2
delta Cq score after treatment, Post B group [4]: 17±6
Clinical status 10 days later (bacterial vaginosis (BV) [1]; P1, daily suppositories 750 mg): full remission
Day of recurrence of symptomatic BV (bacterial vaginosis (BV) [1]; P1, daily suppositories 750 mg): 94 days
Amsel status after treatment (bacterial vaginosis (BV) [1]; P1, high dose vaginal): Amsel negative
Nugent score after treatment (bacterial vaginosis (BV) [1]; P1, high dose vaginal, after first and second BV episodes): 0
Florid episodes of BV in the two previous years in spite of prophylactic therapy (bacterial vaginosis (BV) [1]; P1, vaginal 500-750 mg twice weekly): 4
Amsel status after treatment (bacterial vaginosis (BV) [1]; P2-post1, oral): Amsel negative
Nugent score after treatment (bacterial vaginosis (BV) [1]; P2-post1, oral): 0
Day symptoms were reported after second treatment (bacterial vaginosis (BV) [1]; [5]): 152 days
Response to second treatment (bacterial vaginosis (BV) [1]; [5]): recovered well
Time to recurrence after second treatment (self-reported) (bacterial vaginosis (BV) [1]; P2, 2x500 mg suppositories daily for 7 days): approximately 117 days PT
Clinical status one week later (bacterial vaginosis (BV) [1]; P2, oral 500 mg bid for 7 days): asymptomatic
Time of symptomatic recurrence after enrollment (bacterial vaginosis (BV) [1]; P2, oral 500 mg bid for 7 days): 35 days
Clinical status 21 days later (bacterial vaginosis (BV) [1]; [6]): asymptomatic in clinical remission
Nugent score 21 days later (bacterial vaginosis (BV) [1]; [6]): 4
Outcome at return within three weeks by Amsel criteria (bacterial vaginosis (BV) [1]; five recurrent BV patients, Nugent scores of 0 except Patient 5): clinical cure
Nugent average after treatment, Post A group (bacterial vaginosis (BV) [1]; [7]): 2.2±4.0
Nugent average after treatment, Post B group (bacterial vaginosis (BV) [1]; [7]): 0.8±1.2
Actinobacteridae (G. vaginalis) share after treatment ([2]; P1-post1): 2%
Lactobacillaceae share of post-treatment samples ([2]; P1-post1 and -post2, high dose vaginal): > 97%
Further fold reduction of G. vaginalis ([2]; P1-post2 versus P1-post1): ~100 fold
Actinobacteridae (G. vaginalis) share after treatment ([2]; P2-post1, oral): < 0.5%
Share of 6-8 other targets after treatment ([2]; P2-post1, oral): under 0.1%
